Source: US4973593A, “Novel compounds for the treatment of hypertension” (Research Corporation Technologies, Inc., priority 1987, dated 1990)

Experiments:
[1] = system: cat cardioaccelerator nerve; assay: Cat Cardioaccelerator Nerve Assay (in vivo peripheral dopamine agonist activity); conditions: for % inhibn of nerve stimulation: N=3; for peripheral dopamine agonist activity: in vivo, summary of Table I
Experimental: Cats were anesthetized by injection of pentobarbital sodium (30 mg/kg) into the thoracic cavity, and the surgical and experimental procedure was according to the procedure described in Cannon, J. G., et al. in J. Med. Chem. 1984, 27, 186. Experimental compounds were administered intravenously in doses of 0.33 log intervals.
The compounds 11, 15, and 18 were evaluated for in vivo dopamine agonist activity in the cat cardioaccelerator nerve assay.

nigrostriatal projection = assay: Rotation Assay (circling behavior, 6-hydroxydopamine unilateral denervation of the nigrostriatal projection); type: in vivo, Male Sprague-Dawley rats; conditions: for antagonism of apomorphine-induced rotations in rats: apomorphine 0.25 mg/kg, compound 4.0 mg/kg; for rotational behavior in rats with unilateral lesions of the nigrostriatal projection: dose 4.0 mg/kg
Experimental: Male Sprague-Dawley rats with 6-hydroxydopamine unilateral denervation of the nigrostriatal projection were used to test compounds for circling behavior according to the procedure of Cannon, et al. in J. Med. Chem 1984, 27, 186. Compounds were administered at a dose of 4.0 mg/kg and were also evaluated for their ability to antagonize apomorphine (0.25 mg/kg) induced rotations.
Finally, the compounds 11, 15, and 18 were evaluated for in vivo rat rotation assay.

dopamine receptor = assay: Dopamine Receptor Binding Studies ([^3 H]spiroperidol displacement, rat striatal tissue); conditions: [^3 H]spiroperidol 2 nM
Experimental: A method of Seeman, et al., Proc. Natl. Acad. Sci. U.S.A., 1975, 72, 4376, was employed using [^3 H]spiroperidol (2 nM) and rat striatal tissue.
Compound 11 was also evaluated for its ability to displace [^3 H] spiroperidol (2nm) from rat striatal tissue.

| ability to displace [^3 H]spiroperidol from rat striatal tissue (dopamine receptor) | Structure (SMILES) | % inhibn of nerve stimulation ([1]; dose 0.46, iv) | heart rate ([1]; dose 1.38, iv) | % inhibn of nerve stimulation ([1]; dose 1.38, iv) | arterial pressure ([1]; dose 4.60, iv) | % inhibn of nerve stimulation ([1]; dose 4.60, iv) | peripheral dopamine agonist activity [1] | antagonism of apomorphine-induced rotations in rats (nigrostriatal projection) | rotational behavior in rats with unilateral lesions of the nigrostriatal projection (nigrostriatal projection) | arterial pressure ([1]; dose 3.5, iv) | heart rate ([1]; dose 3.5, iv) | % inhibn of nerve stimulation ([1]; dose 3.5, iv) | % inhibn of nerve stimulation ([1]; dose 0.035, iv) | % inhibn of nerve stimulation ([1]; dose 0.105, iv) | % inhibn of nerve stimulation ([1]; dose 0.315, iv) |
| --- | --- | --- | --- | --- | --- | --- | --- | --- | --- | --- | --- | --- | --- | --- | --- |
| – | CN1CCCC2(OCCO2)C1Cc1ccccc1 (stereo not drawn) [Compound 18, 6-Benzyl-7-methyl-1,4-dioxa-7-azaspiro[4.5]decane] | 22 ± 11.7% | Increased heart rate slightly at this dose | 18 ± 2.0% | Increased arterial pressure at this dose | 36 ± 12.3% | effective agonist activity | nor did they antagonize apomorphine-induced rotations | None of the compounds screened produced rotational behavior | – | – | – | – | – | – |
| – | CN1CCCC2(OCCO2)C1Cc1c[nH]c2ccccc12 (stereo not drawn) [Compound 15, 6-(3-Indolylmethyl)-7-methyl-1,4-dioxa-7-azaspiro[4.5]decane] | – | – | – | – | – | effective agonist activity | nor did they antagonize apomorphine-induced rotations | None of the compounds screened produced rotational behavior | Increased arterial pressure at this dose | Increased heart rate slightly at this dose | 32 ± 17.4% | – | – | – |
| inactive | CN1CCCC2(OCCO2)C1Cc1cccc2[nH]ccc12 (stereo not drawn) [Compound 11, 6-(4-Indolylmethyl)-7-methyl-1,4-dioxa-7-azaspiro[4.5]decane] | – | – | – | – | – | effective agonist activity | nor did they antagonize apomorphine-induced rotations | None of the compounds screened produced rotational behavior | – | – | – | 26 ± 19% | 48 ± 21% | 79 ± 11% |
